Data published in ChEMBL document CHEMBL1201861, “Genomics of Drug Sensitity in Cancer screening data, Wellcome Trust Sanger Institute”.

Assays:
Assay type in all cases: functional, cell-based
[1] = system: Ca-Ski; assay: cells; conditions: Homo sapiens;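 further: cell viability assay measuring inhibition of Ca-Ski cell growth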
Description: SANGER: Inhibition of human Ca-Ski cell growth in a cell viability assay.

[2] = system: Calu-1; assay: SANGER: Inhibition of human Calu-1 cell growth in a cell viability assay.
[3] = system: Daudi; assay: cells; conditions: Homo sapiens;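 further: growth inhibition of Daudi cells, read out by a viability assay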
Description: SANGER: Inhibition of human Daudi cell growth in a cell viability assay.

[4] = system: EFE-184; assay: cells; conditions: Homo sapiens
Description: SANGER: Inhibition of human EFE-184 cell growth in a cell viability assay.

[5] = system: EFO-27; assay: cells; conditions: Homo sapiens;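 further: growth inhibition of EFO-27 cells, read out with a cell viability assay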
Description: SANGER: Inhibition of human EFO-27 cell growth in a cell viability assay.

[6] = system: HCC1937; assay: cells; conditions: Homo sapiens;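 further: growth inhibition measured with a cell viability read-out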
Description: SANGER: Inhibition of human HCC1937 cell growth in a cell viability assay.

[7] = system: HT-1376; assay: cells; conditions: Homo sapiens
Description: SANGER: Inhibition of human HT-1376 cell growth in a cell viability assay.

[8] = system: HT-29; assay: cells; conditions: Homo sapiens;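 further: growth inhibition of human HT-29 cells, read out by a cell viability assay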
Description: SANGER: Inhibition of human HT-29 cell growth in a cell viability assay.

[9] = system: HuP-T3; assay: cells; conditions: Homo sapiens;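 further: HuP-T3 cell growth inhibition, read out with a cell viability assay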
Description: SANGER: Inhibition of human HuP-T3 cell growth in a cell viability assay.

[10] = system: IGR-1; assay: cells; conditions: Homo sapiens;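 further: growth inhibition of human IGR-1 cells, read out with a cell viability assay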
Description: SANGER: Inhibition of human IGR-1 cell growth in a cell viability assay.

[11] = system: KARPAS-422; assay: cells; conditions: Homo sapiens
Description: SANGER: Inhibition of human KARPAS-422 cell growth in a cell viability assay.

[12] = system: KYSE-510; assay: cells; conditions: Homo sapiens;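 further: cell viability readout used to measure how strongly growth of the cell line is suppressed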
Description: SANGER: Inhibition of human KYSE-510 cell growth in a cell viability assay.

[13] = system: KYSE-520 cell line; assay: cells; conditions: Homo sapiens;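 further: growth inhibition of human KYSE-520 cells, read out with a viability assay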
Description: SANGER: Inhibition of human KYSE-520 cell growth in a cell viability assay.

[14] = system: L-540; assay: cells; conditions: Homo sapiens;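 further: growth inhibition of the human L-540 cell line, read out with a viability assay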
Description: SANGER: Inhibition of human L-540 cell growth in a cell viability assay.

[15] = system: LB996-RCC; assay: cells; conditions: Homo sapiens
Description: SANGER: Inhibition of human LB996-RCC cell growth in a cell viability assay.

[16] = system: LU-165; assay: cells; conditions: Homo sapiens
Description: SANGER: Inhibition of human LU-165 cell growth in a cell viability assay.

[17] = system: MDA-MB-134-VI; assay: cells; conditions: Homo sapiens
Description: SANGER: Inhibition of human MDA-MB-134-VI cell growth in a cell viability assay.

[18] = system: MDA-MB-468; assay: cells; conditions: Homo sapiens
Description: SANGER: Inhibition of human MDA-MB-468 cell growth in a cell viability assay.

[19] = system: MG-63; assay: cells; conditions: Homo sapiens;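 further: growth inhibition of human MG-63 cells, read out with a cell viability assay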
Description: SANGER: Inhibition of human MG-63 cell growth in a cell viability assay.

[20] = system: NCI-H1694; assay: cells; conditions: Homo sapiens;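 further: cell viability assay measuring inhibition of growth in human NCI-H1694 cells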
Description: SANGER: Inhibition of human NCI-H1694 cell growth in a cell viability assay.

[21] = system: NCI-H1703; assay: cells; conditions: Homo sapiens;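 further: growth inhibition of NCI-H1703 cells, read out via a cell viability assay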
Description: SANGER: Inhibition of human NCI-H1703 cell growth in a cell viability assay.

[22] = system: NCI-H1734; assay: cells; conditions: Homo sapiens;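 further: growth inhibition of human NCI-H1734 cells, read out with a cell viability assay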
Description: SANGER: Inhibition of human NCI-H1734 cell growth in a cell viability assay.

[23] = system: NCI-H1755; assay: cells; conditions: Homo sapiens;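 further: cell viability readout used to measure growth inhibition of NCI-H1755 cells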
Description: SANGER: Inhibition of human NCI-H1755 cell growth in a cell viability assay.

[24] = system: NCI-H2009; assay: cells; conditions: Homo sapiens;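 further: cell viability assay measuring inhibition of NCI-H2009 cell growth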
Description: SANGER: Inhibition of human NCI-H2009 cell growth in a cell viability assay.

[25] = system: NCI-H2030; assay: cells; conditions: Homo sapiens;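 further: growth inhibition of human NCI-H2030 cells, read out by a cell viability assay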
Description: SANGER: Inhibition of human NCI-H2030 cell growth in a cell viability assay.

[26] = system: NCI-H2052; assay: cells; conditions: Homo sapiens;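 further: growth inhibition of NCI-H2052 cells, read out with a cell viability assay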
Description: SANGER: Inhibition of human NCI-H2052 cell growth in a cell viability assay.

[27] = system: NCI-H2141; assay: cells; conditions: Homo sapiens;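 further: growth inhibition of human NCI-H2141 cells, read out with a cell viability assay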
Description: SANGER: Inhibition of human NCI-H2141 cell growth in a cell viability assay.

[28] = system: NCI-H2342; assay: cells; conditions: Homo sapiens;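 further: growth inhibition of the cancer cell line, determined with a cell viability assay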
Description: SANGER: Inhibition of human NCI-H2342 cell growth in a cell viability assay.

[29] = system: NCI-H292; assay: cells; conditions: Homo sapiens;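 further: growth inhibition of NCI-H292 cells, read out with a cell viability assay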
Description: SANGER: Inhibition of human NCI-H292 cell growth in a cell viability assay.

[30] = system: NCI-H322M; assay: cells; conditions: Homo sapiens;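 further: cell viability assay measuring inhibition of growth of human NCI-H322M cells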
Description: SANGER: Inhibition of human NCI-H322M cell growth in a cell viability assay.

[31] = system: NCI-H345; assay: cells; conditions: Homo sapiens;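 further: growth inhibition of NCI-H345 cells measured with a cell viability assay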
Description: SANGER: Inhibition of human NCI-H345 cell growth in a cell viability assay.

[32] = system: SNU-16; assay: cells; conditions: Homo sapiens;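 further: growth inhibition of human SNU-16 cells, determined with a cell viability readout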
Description: SANGER: Inhibition of human NCI-SNU-16 cell growth in a cell viability assay.

[33] = system: P12-Ichikawa; assay: cells; conditions: Homo sapiens
[34] = system: P31-FUJ; assay: cells; conditions: Homo sapiens;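 further: growth inhibition of P31-FUJ cells, read out with a viability assay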
Description: SANGER: Inhibition of human P31-FUJ cell growth in a cell viability assay.

[35] = system: PA-1; assay: cells; conditions: Homo sapiens;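 further: IC50 for suppression of PA-1 cell proliferation, determined with a cell viability read-out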
Description: SANGER: Inhibition of human PA-1 cell growth in a cell viability assay.

[36] = system: PANC-03-27; assay: cells; conditions: Homo sapiens
Description: SANGER: Inhibition of human PANC-03-27 cell growth in a cell viability assay.

[37] = system: PC-14; assay: cells; conditions: Homo sapiens;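 further: cell viability assay measuring inhibition of PC-14 cell growth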
Description: SANGER: Inhibition of human PC-14 cell growth in a cell viability assay.

[38] = system: PLC-PRF-5; assay: cells; conditions: Homo sapiens;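 further: growth inhibition of human PLC-PRF-5 cells, read out with a viability assay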
Description: SANGER: Inhibition of human PLC-PRF-5 cell growth in a cell viability assay.

[39] = system: RCM-1; assay: cells; conditions: Homo sapiens;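 further: growth inhibition of the RCM-1 line, determined with a cell viability readout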
Description: SANGER: Inhibition of human RCM-1 cell growth in a cell viability assay.

[40] = system: RPMI-2650; assay: cells; conditions: Homo sapiens
Description: SANGER: Inhibition of human RPMI-2650 cell growth in a cell viability assay.

[41] = system: RVH-421; assay: cells; conditions: Homo sapiens
Description: SANGER: Inhibition of human RVH-421 cell growth in a cell viability assay.

[42] = system: SCC-25; assay: cells; conditions: Homo sapiens;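 further: growth inhibition of SCC-25 cells, measured with a cell viability assay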
Description: SANGER: Inhibition of human SCC-25 cell growth in a cell viability assay.

[43] = system: SK-MEL-30; assay: cells; conditions: Homo sapiens;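 further: growth inhibition of SK-MEL-30 cells, determined with a cell viability assay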
Description: SANGER: Inhibition of human SK-MEL-30 cell growth in a cell viability assay.

[44] = system: SN12C; assay: cells; conditions: Homo sapiens;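 further: growth inhibition of human SN12C cells, measured by a cell viability assay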
Description: SANGER: Inhibition of human SN12C cell growth in a cell viability assay.

[45] = system: SU-DHL-1; assay: SANGER: Inhibition of human SU-DHL-1 cell growth in a cell viability assay.
[46] = system: T-24; assay: cells; conditions: Homo sapiens;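 further: growth inhibition of T-24 cells, read out with a cell viability assay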
Description: SANGER: Inhibition of human T-24 cell growth in a cell viability assay.

[47] = system: 23132-87; assay: cells; conditions: Homo sapiens
Description: SANGER: Inhibition of human 23132-87 cell growth in a cell viability assay.

[48] = system: 647-V; assay: cells; conditions: Homo sapiens;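 further: growth inhibition of 647-V cells, read out with a cell viability assay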
Description: SANGER: Inhibition of human 647-V cell growth in a cell viability assay.

[49] = system: A2058; assay: cells; conditions: Homo sapiens;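 further: reduction of A2058 cell growth, read out with a viability assay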
Description: SANGER: Inhibition of human A2058 cell growth in a cell viability assay.

[50] = system: A253 cell line; assay: cells; conditions: Homo sapiens;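 further: growth inhibition of A253 cells, read out with a cell viability assay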
Description: SANGER: Inhibition of human A253 cell growth in a cell viability assay.

[51] = system: A673; assay: cells; conditions: Homo sapiens;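 further: growth inhibition of human A673 cells, read out through a cell viability assay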
Description: SANGER: Inhibition of human A673 cell growth in a cell viability assay.

[52] = system: ARH-77; assay: cells; conditions: Homo sapiens;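 further: growth inhibition of ARH-77 cells, read out by a cell viability assay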
Description: SANGER: Inhibition of human ARH-77 cell growth in a cell viability assay.

[53] = system: BXPC-3; assay: cells; conditions: Homo sapiens;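 further: growth inhibition of human BxPC-3 cells, read out by a cell viability assay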
Description: SANGER: Inhibition of human BxPC-3 cell growth in a cell viability assay.

[54] = system: C-33-A; assay: cells; conditions: Homo sapiens;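 further: cell viability assay measuring growth inhibition of C-33-A cells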
Description: SANGER: Inhibition of human C-33-A cell growth in a cell viability assay.

[55] = system: CAL-51; assay: cells; conditions: Homo sapiens;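 further: human CAL-51 cell line, growth inhibition read out via a cell viability assay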
Description: SANGER: Inhibition of human CAL-51 cell growth in a cell viability assay.

[56] = system: CAL-62; assay: cells; conditions: Homo sapiens;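 further: growth inhibition of CAL-62 cells, read out with a cell viability assay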
Description: SANGER: Inhibition of human CAL-62 cell growth in a cell viability assay.

[57] = system: TYK-nu; assay: cells; conditions: Homo sapiens;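 further: growth inhibition of human TYK-nu cells, read out by a cell viability assay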
Description: SANGER: Inhibition of human TYK-nu cell growth in a cell viability assay.

[58] = system: UMUC3; assay: cells; conditions: Homo sapiens;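 further: growth inhibition of human UM-UC-3 cells, read out with a cell viability assay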
Description: SANGER: Inhibition of human UM-UC-3 cell growth in a cell viability assay.

CO[C@@]12[C@H](COC(N)=O)C3=C(C(=O)C(C)=C(N)C3=O)N1C[C@@H]1N[C@@H]12 [MITOMYCIN]
IC50 [1]: 0.0538 µM
IC50 [2]: 4.81 µM
IC50 [3]: 0.392 µM
IC50 [4]: 1.38 µM
IC50 [5]: 1.13 µM
IC50 [6]: 0.594 µM
IC50 [7]: 0.967 µM
IC50 [8]: 0.036 µM
IC50 [9]: 0.711 µM
IC50 [10]: 0.322 µM
IC50 [11]: 0.907 µM
IC50 [12]: < 0.0625 µM
IC50 [13]: 0.772 µM
IC50 [14]: 0.0951 µM
IC50 [15]: 0.0177 µM
IC50 [16]: 0.513 µM
IC50 [17]: 2.16 µM
IC50 [18]: 0.345 µM
IC50 [19]: 0.226 µM
IC50 [20]: 0.415 µM
IC50 [21]: 0.277 µM
IC50 [22]: 0.137 µM
IC50 [23]: 5.44 µM
IC50 [24]: 0.289 µM
IC50 [25]: 0.211 µM
IC50 [26]: 1.99 µM
IC50 [27]: 0.853 µM
IC50 [28]: 0.0625 µM
IC50 [29]: 0.884 µM
IC50 [30]: 1.8 µM
IC50 [31]: 4.73 µM
IC50 [32]: 6.74 µM
IC50 [33]: < 0.0625 µM
IC50 [34]: 3.46 µM
IC50 [35]: 0.0235 µM
IC50 [36]: 0.167 µM
IC50 [37]: 0.491 µM
IC50 [38]: 4.19 µM
IC50 [39]: 0.847 µM
IC50 [40]: 0.196 µM
IC50 [41]: 0.629 µM
IC50 [42]: 0.87 µM
IC50 [43]: 0.474 µM
IC50 [44]: 3.46 µM
IC50 [45]: < 0.0625 µM
IC50 [46]: 0.246 µM
IC50 [47]: 0.0305 µM
IC50 [48]: 0.0874 µM
IC50 [49]: 0.115 µM
IC50 [50]: 0.346 µM
IC50 [51]: 0.79 µM
IC50 [52]: 0.243 µM
IC50 [53]: 0.775 µM
IC50 [54]: 0.487 µM
IC50 [55]: 0.0309 µM
IC50 [56]: 0.242 µM
IC50 [57]: 0.0587 µM
IC50 [58]: 0.102 µM
